Experimental data from US20120065066A1, “NOVEL HERBICIDES” (SYNGENTA CROP PROTECTION LLC, priority 2009, published 2012).

Experiments:
Assay type in all cases: in vivo
[1] = tested on: Alopecurus myosuroides (ALOMY); experiment: Test Example 1, pre-emergence herbicidal test; settings: 480 h, evaluated 20 days later, 100=total damage to plant, 0=no damage to plant
Protocol: (§1) Monocotyledonous and dicotyledonous test plants were sown in standard soil in pots. After cultivation for one day (pre-emergence) or after 10 days cultivation (post-emergence) under controlled conditions in a glasshouse, the plants were sprayed with an aqueous spray solution derived from the formulation of the technical active ingredient in 0.6 ml acetone and 45 ml formulation solution containing 10.6% Emulsogen EL (Registry number 61791-12-6), 42.2% N-methylpyrrolidone, 42.2% dipropylene glycol monomethyl ether (Registry number 34590-94-8) and 0.2% X-77 (Registry number 11097-66-8). The test plants were then grown in a greenhouse under optimum conditions until, 15 days later for post-emergence and 20 days for pre-emergence, the test was evaluated (100=total damage to plant; 0=no damage to plant). Test Plants: Lolium perenne (LOLPE), Setaria faberi (SETFA), Digitaria sanguinalis (DIGSA), Alopecurus myosuroides (ALOMY), Echinochloa crus-galli (ECHCG) and Avena fatua (AVEFA), Pre-Emergence Data: […]

Avena fatua (AVEFA) [2] = experiment: Test Example 1, pre-emergence herbicidal test; settings: 480 h, evaluated 20 days later, 100=total damage to plant, 0=no damage to plant
Protocol: as §1

[3] = tested on: Digitaria sanguinalis (DIGSA); experiment: Test Example 1, pre-emergence herbicidal test; settings: 480 h, evaluated 20 days later, 100=total damage to plant, 0=no damage to plant
Protocol: as §1

[4] = tested on: Echinochloa crus-galli (ECHCG); experiment: Test Example 1, pre-emergence herbicidal test; settings: 480 h, evaluated 20 days later, 100=total damage to plant, 0=no damage to plant
Protocol: as §1

Lolium perenne (LOLPE) [5] = experiment: Test Example 1, pre-emergence herbicidal test; settings: 480 h, evaluated 20 days later, 100=total damage to plant, 0=no damage to plant
Protocol: as §1

Setaria faberi (SETFA) [6] = experiment: Test Example 1, pre-emergence herbicidal test; settings: 480 h, evaluated 20 days later, 100=total damage to plant, 0=no damage to plant, read-out: SEFTA damage to plant
Protocol: as §1

[7] = tested on: Alopecurus myosuroides (ALOMY); experiment: Test Example 1, post-emergence herbicidal test; settings: 360 h, evaluated 15 days later, 100=total damage to plant, 0=no damage to plant
Protocol: as §1, with “Post-Emergence” for “Pre-Emergence”

Avena fatua (AVEFA) [8] = experiment: Test Example 1, post-emergence herbicidal test; settings: 360 h, evaluated 15 days later, 100=total damage to plant, 0=no damage to plant
Protocol: as §1, with “Post-Emergence” for “Pre-Emergence”

[9] = tested on: Digitaria sanguinalis (DIGSA); experiment: Test Example 1, post-emergence herbicidal test; settings: 360 h, evaluated 15 days later, 100=total damage to plant, 0=no damage to plant
Protocol: as §1, with “Post-Emergence” for “Pre-Emergence”

[10] = tested on: Echinochloa crus-galli (ECHCG); experiment: Test Example 1, post-emergence herbicidal test; settings: 360 h, evaluated 15 days later, 100=total damage to plant, 0=no damage to plant
Protocol: as §1, with “Post-Emergence” for “Pre-Emergence”

Lolium perenne (LOLPE) [11] = experiment: Test Example 1, post-emergence herbicidal test; settings: 360 h, evaluated 15 days later, 100=total damage to plant, 0=no damage to plant
Protocol: as §1, with “Post-Emergence” for “Pre-Emergence”

Setaria faberi (SETFA) [12] = experiment: Test Example 1, post-emergence herbicidal test; settings: 360 h, evaluated 15 days later, 100=total damage to plant, 0=no damage to plant, read-out: SEFTA damage to plant
Protocol: as §1, with “Post-Emergence” for “Pre-Emergence”

SMILES	pest or weed control at 250 g/ha [1] [%]	pest or weed control at 250 g/ha (Avena fatua (AVEFA) [2]) [%]	pest or weed control at 250 g/ha [3] [%]	pest or weed control at 250 g/ha [4] [%]	pest or weed control at 250 g/ha (Lolium perenne (LOLPE) [5]) [%]	pest or weed control at 250 g/ha (Setaria faberi (SETFA) [6]) [%]	pest or weed control at 125 g/ha [7] [%]	pest or weed control at 125 g/ha (Avena fatua (AVEFA) [8]) [%]	pest or weed control at 125 g/ha [9] [%]	pest or weed control at 125 g/ha [10] [%]	pest or weed control at 125 g/ha (Lolium perenne (LOLPE) [11]) [%]	pest or weed control at 125 g/ha (Setaria faberi (SETFA) [12]) [%]
CCc1cc(C)cc(CC)c1C1=C(O)[C@H]2[C@H]3CC[C@H](CC3)[C@H]2C1=O (racemic) [Compound T48, rac-(7R,8S)-2-(2,6-diethyl-4-methylphenyl)hexahydro-4,7-ethanoindene-1,3-dione]	100	70	100	100	100	100	80	70	100	90	100	80
CCc1cc(C)cc(CC)c1C1=C(O)[C@@H]2[C@H](C1=O)[C@@H]1CC[C@H]2C1=C(C)C [Compound T51]	60	60	80	90	100	80	30	0	30	10	50	0
CCc1cc(C)cc(CC)c1C1=C(O)[C@@H]2[C@H](C1=O)[C@H]1CC[C@@H]2C1=C(C)C [Compound T52]	50	60	80	90	70	100	90	20	70	80	50	80
Cc1cc(C)c(C2=C(O)[C@@H]3[C@H](C2=O)[C@@H]2C=C[C@H]3CC2)c(C)c1 [Compound T53]	70	40	80	70	100	100	20	0	50	60	30	20
CCc1cc(C)cc(CC)c1C1=C(O)[C@H]2[C@@H]3CC[C@@H](C(=O)C3)[C@H]2C1=O [Compound T54]	70	70	80	70	90	80	60	60	80	80	50	80
CCc1ccc(-c2ccc(Cl)cc2)cc1C1=C(O)[C@H]2C3CCC(C3=C(C)C)[C@H]2C1=O (stereo partly drawn) [Compound T21]	60	20	50	30	40	60	20	20	20	0	0	20
Cc1cc(C)c(C2=C(O)[C@H]3[C@H]4CC[C@H](CC4)[C@H]3C2=O)c(C)c1 [Compound T47]	90	50	100	70	80	100	0	40	80	60	40	60
